The results in this text go back to US20100317647A1 (priority 2009, published 2010).

For orientation: IC50 means the concentration needed to halve the response being measured.

human Cat S, sequence (P25774 115-331): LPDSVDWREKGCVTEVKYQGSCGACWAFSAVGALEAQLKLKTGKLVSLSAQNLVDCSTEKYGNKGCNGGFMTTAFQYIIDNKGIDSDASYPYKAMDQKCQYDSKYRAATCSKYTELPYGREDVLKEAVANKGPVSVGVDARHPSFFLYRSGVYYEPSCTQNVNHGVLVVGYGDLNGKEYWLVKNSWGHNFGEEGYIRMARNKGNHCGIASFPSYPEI

For this experiment, the target named is human Cat S (Homo sapiens, UniProt P25774). Description: Cathepsin enzyme inhibition assay (fluorogenic peptide substrate cleavage). Type of experiment: biochemical. To be noted: human Cat S 1 nM; substrate Z-Val-Val-Arg-AMC 20 μM; pH 6.5; fluorescence over 20 minutes. How it is done:
Cathepsin Enzyme Inhibition Assay
Enzyme activity is measured by observing the increase in fluorescence intensity caused by cleavage of a peptide substrate containing a fluorophore whose emission is quenched in the intact peptide.
Assay buffer: 100 mM potassium phosphate pH 6.5, EDTA-Na 5 mM, Triton X-100 0.001%, DTT 5 mM. Enzymes (all at 1 nM): human and mouse Cathepsin S, Cat K, Cat B, Cat L. Substrate (20 μM): Z-Val-Val-Arg-AMC, except for Cat K which uses Z-Leu-Arg-AMC (both from Bachem).
AMC=7-Amino-4-Methyl-Coumarin.
DTT=dithiothreitol. Final volume: 100 μL.
Excitation 360 nm, Emission 465 nm.
Enzyme is added to the substance dilutions in 96-well microtitre plates and the reaction is started with substrate. Fluorescence emission is measured over 20 minutes, during which time a linear increase is observed in the absence of inhibitor. IC50 are calculated by standard methods. Inhibition of human Cat S, mouse Cat S, human Cat K, mouse Cat K, human Cat B, mouse Cat B, human Cat L and mouse Cat L have been measured separately. The results obtained for human Cat S are expressed in the following table.
The molecule `CO[C@@H]1C[C@H](S(=O)(=O)c2ccc(-c3cncc(F)c3)cc2C(F)(F)F)C[C@H]1C(=O)NC1(C#N)CC1` (racemic) [Example 84, (1R,2R,4R) and (1S,2S,4S)-4-[4-(5-Fluoro-pyridin-3-yl)-2-trifluoromethyl-benzenesulfonyl]-2-methoxy-cyclopentanecarboxylic acid (1-cyano-cyclopropyl)-amide] showed an IC50 of 0.7 nM.

With `CO[C@@H]1C[C@H](S(=O)(=O)c2ccc(-c3cncc(C)c3)cc2C(F)(F)F)C[C@H]1C(=O)NC1(C#N)CC1` (racemic) [Example 85, (1R,2R,4R) and (1S,2S,4S)-2-Methoxy-4-[4-(5-methyl-pyridin-3-yl)-2-trifluoromethyl-benzenesulfonyl]-cyclopentanecarboxylic acid (1-cyano-cyclopropyl)-amide], the IC50 is 0.5 nM.

Consider `COc1cncc(-c2ccc(S(=O)(=O)[C@H]3C[C@@H](OC)[C@H](C(=O)NC4(C#N)CC4)C3)c(C(F)(F)F)c2)c1` (racemic) [Example 86, (1R,2R,4R) and (1S,2S,4S)-2-Methoxy-4-[4-(5-methoxy-pyridin-3-yl)-2-trifluoromethyl-benzenesulfonyl]-cyclopentanecarboxylic acid (1-cyano-cyclopropyl)-amide], for which half-maximal inhibition (IC50) required 0.5 nM.

Regarding `CO[C@@H]1C[C@H](S(=O)(=O)c2ccc(-c3cc(C)sc3C)cc2C(F)(F)F)C[C@H]1C(=O)NC1(C#N)CC1` (racemic) [Example 87, (1R,2R,4R) and (1S,2S,4S)-4-[4-(2,5-Dimethyl-thiophen-3-yl)-2-trifluoromethyl-benzenesulfonyl]-2-methoxy-cyclopentanecarboxylic acid (1-cyano-cyclopropyl)-amide], inhibition was half-maximal at 0.2 nM (IC50).

Molecule `CO[C@@H]1C[C@H](S(=O)(=O)c2ccc(-n3nc(C)ccc3=O)cc2Cl)C[C@H]1C(=O)NC1(C#N)CC1` (racemic) [Example 88, (1R,2R,4R) and (1S,2S,4S)-4-[2-Chloro-4-(3-methyl-6-oxo-6H-pyridazin-1-yl)-benzenesulfonyl]-2-methoxy-cyclopentanecarboxylic acid (1-cyano-cyclopropyl)-amide] came in with an IC50 of 9.1 nM.

`COc1ccc(S(=O)(=O)[C@H]2C[C@@H](OC)[C@H](C(=O)NC3(C#N)CC3)C2)c(Cl)c1` (racemic) [Example 89, (1R,2R,4R) and (1S,2S,4S)-4-(2-Chloro-4-methoxy-benzenesulfonyl)-2-methoxy-cyclopentanecarboxylic acid (1-cyano-cyclopropyl)-amide] yielded a 50% inhibitory concentration (IC50) of 7.4 nM.

With `CO[C@@H]1C[C@H](S(=O)(=O)c2ccc(-c3cncc(Cl)c3)cc2C(F)(F)F)C[C@H]1C(=O)NC1(C#N)CC1` (racemic) [Example 90, (1R,2R,4R) and (1S,2S,4S)-4-[4-(5-Chloro-pyridin-3-yl)-2-trifluoromethyl-benzenesulfonyl]-2-methoxy-cyclopentanecarboxylic acid (1-cyano-cyclopropyl)-amide], the IC50 stood at 0.4 nM.

As to `CO[C@@H]1C[C@H](S(=O)(=O)c2ccc(-c3c(C)noc3C)cc2C(F)(F)F)C[C@H]1C(=O)NC1(C#N)CC1` (racemic) [Example 91, (1R,2R,4R) and (1S,2S,4S)-4-[4-(3,5-Dimethyl-isoxazol-4-yl)-2-trifluoromethyl-benzenesulfonyl]-2-methoxy-cyclopentanecarboxylic acid (1-cyano-cyclopropyl)-amide], the IC50 came out at 0.5 nM.

Molecule `N#CC1(NC(=O)[C@H]2CC[C@H](S(=O)(=O)c3ccc(F)cc3Cl)C2)CC1` (racemic) [Example 92, (1S,3S) and (1R,3R)-3-(2-Chloro-4-fluoro-benzenesulfonyl)-cyclopentanecarboxylic acid (1-cyano-cyclopropyl)-amide] had an IC50 of 385 nM.

Molecule `C[C@@H](Oc1ccc(S(=O)(=O)[C@H]2CC[C@H](C(=O)NC3(C#N)CC3)C2)c(Cl)c1)C(F)(F)F` (racemic) [Example 93] gave an IC50 of 565 nM.

In turn, `N#CC1(NC(=O)[C@H]2CC[C@H](S(=O)(=O)c3ccc(N4CCOCC4)cc3Cl)C2)CC1` (racemic) [Example 94, (1S,3S) and (1R,3R)-3-(2-Chloro-4-morpholin-4-yl-benzenesulfonyl)-cyclopentanecarboxylic acid (1-cyano-cyclopropyl)-amide] had a concentration for half-maximal inhibition (IC50) of 290 nM.

`N#CC1(NC(=O)[C@H]2CC[C@H](S(=O)(=O)c3ccc(N4CC5(COC5)C4)cc3Cl)C2)CC1` (racemic) [Example 95, (1S,3S) and (1R,3R)-3-[2-chloro-4-(2-oxa-6-aza-spiro[3.3]hept-6-yl)-benzenesulfonyl]-cyclopentanecarboxylic acid (1-cyano-cyclopropyl)-amide] returned an IC50 of 140 nM.

`N#CC1(NC(=O)[C@H]2CC[C@H](S(=O)(=O)c3ccc(N4CCC(F)(F)C4)cc3Cl)C2)CC1` (racemic) [Example 96, (1S,3S) and (1R,3R)-3-[2-chloro-4-(3,3-difluoro-pyrrolidin-1-yl)-benzenesulfonyl]-cyclopentanecarboxylic acid (1-cyano-cyclopropyl)-amide] yielded an IC50 of 213 nM.

On to `CCN1CCN(c2ccc(S(=O)(=O)[C@H]3CC[C@H](C(=O)NC4(C#N)CC4)C3)c(Cl)c2)CC1` (racemic) [Example 97, (1S,3S) and (1R,3R)-3-[2-chloro-4-(4-ethyl-piperazin-1-yl)-benzenesulfonyl]-cyclopentanecarboxylic acid (1-cyano-cyclopropyl)-amide], for which it took 157 nM to reach half-maximal inhibition (IC50).

On to `N#CC1(NC(=O)[C@H]2CC[C@H](S(=O)(=O)c3ccc(N4CCN(C5CC5)CC4)cc3Cl)C2)CC1` (racemic) [Example 102, (1S,3S) and (1R,3R)-3-[2-Chloro-4-(4-cyclopropyl-piperazin-1-yl)-benzenesulfonyl]-cyclopentanecarboxylic acid (1-cyano-cyclopropyl)-amide], for which half-maximal inhibition (IC50) was put at 270 nM.

As to `CO[C@@H]1C[C@H](S(=O)(=O)c2ccc(-c3ccnc(C(F)(F)F)c3)cc2C(F)(F)F)C[C@H]1C(=O)NC1(C#N)CC1` (racemic) [Example 109, (1R,2R,4R) and (1S,2S,4S)-2-Methoxy-4-[2-trifluoromethyl-4-(2-trifluoromethyl-pyridin-4-yl)-benzenesulfonyl]-cyclopentanecarboxylic acid (1-cyano-cyclopropyl)-amide], the IC50 came to 0.4 nM.

Molecule `CO[C@@H]1C[C@H](S(=O)(=O)c2ccc(-c3ccnnc3)cc2C(F)(F)F)C[C@H]1C(=O)NC1(C#N)CC1` (racemic) [Example 110, (1R,2R,4R) and (1S,2S,4S)-2-Methoxy-4-(4-pyridazin-4-yl-2-trifluoromethyl-benzenesulfonyl)-cyclopentanecarboxylic acid (1-cyano-cyclopropyl)-amide] gave a half-inhibitory concentration (IC50) of 0.6 nM.

Molecule `CO[C@@H]1C[C@H](S(=O)(=O)c2ccc(-c3cnccn3)cc2C(F)(F)F)C[C@H]1C(=O)NC1(C#N)CC1` (racemic) [Example 111, (1R,2R,4R) and (1S,2S,4S)-2-Methoxy-4-(4-pyrazin-2-yl-2-trifluoromethyl-benzenesulfonyl)-cyclopentanecarboxylic acid (1-cyano-cyclopropyl)-amide] registered an IC50 of 0.4 nM.

`CC(C)O[C@@H]1C[C@H](S(=O)(=O)c2ccc(Br)cc2C(F)(F)F)C[C@H]1C(=O)NC1(C#N)CC1` (racemic) [Example 112, (1R,2R,4R) and (1S,2S,4S)-4-(4-Bromo-2-trifluoromethyl-benzenesulfonyl)-2-isopropoxy-cyclopentanecarboxylic acid (1-cyano-cyclopropyl)-amide]: it took 0.6 nM to reach half-maximal inhibition (IC50).

In the case of `CCO[C@@H]1C[C@H](S(=O)(=O)c2ccc(Br)cc2C(F)(F)F)C[C@H]1C(=O)NC1(C#N)CC1` (racemic) [Example 113, (1R,2R,4R) and (1S,2S,4S)-4-(4-Bromo-2-trifluoromethyl-benzenesulfonyl)-2-ethoxy-cyclopentanecarboxylic acid (1-cyano-cyclopropyl)-amide], half-maximal inhibition (IC50) was put at 1.1 nM.

On to `CCO[C@@H]1C[C@H](S(=O)(=O)c2ccc(-c3ccnc(C)c3)cc2C(F)(F)F)C[C@H]1C(=O)NC1(C#N)CC1` (racemic) [Example 114, (1R,2R,4R) and (1S,2S,4S)-2-Ethoxy-4-[4-(2-methyl-pyridin-4-yl)-2-trifluoromethyl-benzenesulfonyl]-cyclopentanecarboxylic acid (1-cyano-cyclopropyl)-amide], for which the midpoint of inhibition, the IC50, lay at 0.3 nM.

Consider `CCO[C@@H]1C[C@H](S(=O)(=O)c2ccc(-c3c(C)noc3C)cc2C(F)(F)F)C[C@H]1C(=O)NC1(C#N)CC1` (racemic) [Example 115, (1R,2R,4R) and (1S,2S,4S)-4-[4-(3,5-Dimethyl-isoxazol-4-yl)-2-trifluoromethyl-benzenesulfonyl]-2-ethoxy-cyclopentanecarboxylic acid (1-cyano-cyclopropyl)-amide], for which the IC50 was found to be 0.2 nM.

For the molecule `CCO[C@@H]1C[C@H](S(=O)(=O)c2ccc(-c3cnn(C)c3)cc2C(F)(F)F)C[C@H]1C(=O)NC1(C#N)CC1` (racemic) [Example 116, (1R,2R,4R) and (1S,2S,4S)-2-Ethoxy-4-[4-(1-methyl-1H-pyrazol-4-yl)-2-trifluoromethyl-benzenesulfonyl]-cyclopentanecarboxylic acid (1-cyano-cyclopropyl)-amide], the IC50 is 0.3 nM.
